Ends that are not written are not given here.
How the values were obtained:
osteoblast MC3TC-E1 = assay: Safety in osteoblasts: proliferation, viability, differentiation; format: cell-based, Mouse; details: 0.1, 1, 10 and 100 μM
Description: The safety of the present peptides was determined using osteoblast MC3TC-E1. Osteoblasts were treated with A7-1 peptide as prepared in Example 1 at the concentration of 0.1 μM, 1 μM, 10 μM and 100 μM. Then the effect of the present peptide on the proliferation (FIG. 8A), viability (FIG. 8B) and differentiation (FIG. 8C) on the cells was examined. For testing the effect on the […], MC3T3-E1 and C2C12 cell lines were treated with BMP (rhBMP2, 10 ng/ml for 3 days) and differentiation medium for bone formation for 6 days to induce differentiation. The results were examined by cell staining. It is observed that the present peptide has no effect on the proliferation rate, viability rate or whether or not the cells are differentiated.

MC3T3-E1 = assay: Comparative cell attachment experiment with soluble RGDs (CCK-8); format: cell-based, Mouse; details: RGDs peptides used alone, 0-1000 μM; FIG. 4C
Description: The present peptide A7-1 (10 μM) or A7-1 together with soluble RGDs peptide (0, 10, 100 and 1000 μM) for competition assay were added to anchorage dependent cells MC3T3-E1 in a test tube and incubated for 10 min. Then the cells were transferred to a culture plate and incubated for 10 min in a thermostatic incubator to allow the cells to attach. After 10 min, the medium was removed and the cells were washed 2 times with PBS to remove any unattached cells and a fresh medium without the peptide and CCK-8 (Dojindo) were added to the cells and incubated for 1 hr in a thermostatic incubator. Then the absorbance was measured at 450 nm. The medium mixed with CCK-8 only was used as a blank.

[1] = Affinity chromatography with heparin-agarose beads; format: binding; details: Examples 11 and 12; FIG. 11, FIG. 12
Description: (§1) For chromatography, heparin-agarose beads (Biovision) and GlcNAc-agarose beads (Sigma) were used. 10 ng of FITC labelled peptide (F-peptide) was mixed in PBS-T buffer with heparin-agarose beads and GlcNAc-agarose beads, each precoated with BSA, and incubated at RT for 10 min. Then the mixture was washed 3 times with PBS-T buffer and resuspended in PBS for fluorescent measurement. For competitive binding experiments, the present peptide not labelled with FITC (Cold) was added to the mixture at various ratios of 1:1, 1:10 (10 times) and 1:100 (100 times) and allowed for incubation followed by fluorescent measurement. As a negative control, only FITC dyes were used to react with the beads. Further fluorescent signals from a sample containing just beads suspended in PBS were used as a blank.
(§2) The peptides as listed and described in Table 2 were synthesized as described in Example 1 and tested for its adhesiveness to heparin and N-Acetylglucosamine (GAG) according to the methods described in Example 5.

[2] = Affinity chromatography with GlcNAc-agarose beads; format: binding; details: Examples 11 and 12; FIG. 11, FIG. 12
Description: as §1, §2

Substance: RQLVVKFRALPC [A7-1]
- effect on proliferation rate (osteoblast MC3TC-E1; FIG. 8A): no effect
- effect on viability rate (osteoblast MC3TC-E1; FIG. 8B): no effect
- effect on whether or not the cells are differentiated (osteoblast MC3TC-E1; FIG. 8C): no effect

Substance: RGDs: soluble RGDs peptides used as a competitor; binds to adhesive molecule integrins (RGDS)
- adhesiveness of the cells (MC3T3-E1): decreased in a concentration dependent manner

Substance: KQLVVKFRALPC [SEQ ID NO: 21]
- adhesiveness to heparin [1]: working
- adhesiveness to N-Acetylglucosamine (GAG) [2]: working
